Reference: patent US20220364990A1, “ANALYSIS OF OSCILLATORY FLUORESCENCE FROM BIOLOGICAL CELLS” (MOLECULAR DEVICES, LLC, priority 2019, published 2022)

How the values were obtained:
[1] = system: Human iPSC-derived neural 3D co-cultures (microBrain 3D spheroids); assay: Calcium oscillation assay in iPSC-derived neural 3D spheroids (microBrain 3D, FLIPR Calcium 6 Assay Kit, Peak Pro 2 analysis); assay type: cell-based; details: neural spheroid; for frequency of primary peaks relative to control: control DMSO; for peaks detected in calcium oscillation trace (primary / secondary peaks): recorded ten minutes after 30 minutes treatment
Excerpt: Human iPSC-derived neural 3D co-cultures (StemoniX® microBrain® 3D platform) have been developed as a high-throughput screening platform that more closely resembles the constitution of native human cortical brain tissue. Neural spheroid 3D co-cultures are a physiologically relevant co-culture of iPSC-derived, functionally-active cortical glutamatergic and GABAergic neurons co-differentiated and matured with astrocytes from the same donor. 3D neural spheroids contain a neural network enriched in synapses, creating a highly functional neuronal circuitry and display spontaneous synchronized, readily detectable calcium oscillations.
The neuronal cells in the microBrain® 3D spheroids generate spontaneous synchronized calcium oscillations. Fast kinetic fluorescence imaging by the FLIPR® Penta® system was employed to measure the patterns and frequencies of Ca^2+ oscillations of neuro-spheroids, as monitored by changes in intracellular Ca^2+ levels with the FLIPR® Calcium 6 Assay Kit. A set of known neuromodulators was tested, including agonists and antagonists of NMDA, GABA and AMPA receptors; kainic acid; and analgesic and anti-epileptic drugs. The fluorescence from each well of an entire 384-well plate was recorded simultaneously at a frequency of 2 Hz (0.5 second sampling interval) by high-speed imaging using the FLIPR® Penta® system.
Advanced analysis methods implemented in the ScreenWorks® Peak Pro™ 2 software module provide multi-parametric characterization of Ca^2+ flux oscillation patterns. This phenotypic assay creates readouts such as oscillation frequency, amplitude, peak width, peak rise and decay times, and peak amplitude/spacing irregularity. The effects of modulators of neuronal activity were evaluated by measuring changes in several measurements.
A set of over twenty compounds, including a number of known modulators of neuronal activity, was assayed at different time points and concentrations, and the EC50 values were calculated for compound effects. The time points included 0, 15, 30, 60, 90, and 120 minutes, and 24 hours.

[2] = system: human iPSC-derived cardiomyocytes; assay: Calcium oscillation assay in iPSC-derived cardiomyocytes (FLIPR Penta, EarlyTox Cardiotoxicity Kit, Peak Pro 2 analysis); assay type: cell-based; details: for peaks detected in calcium oscillation trace (primary / secondary peaks): recorded two minutes after thirty minutes treatment; for spacing of primary peaks / primary peak prolongation: after thirty minutes treatment
Method: Development of biologically relevant and predictive cell-based assays for compound screening and toxicity assessment is a major challenge in drug discovery. The focus of this study was to establish high-throughput-compatible cardiotoxicity assays using human-induced pluripotent stem cell (iPSC)-derived cardiomyocytes. To assess the utility of human iPSC-derived cardiomyocytes as an in vitro pro-arrhythmia model, the concentration dependence and responses were evaluated for 28 drugs linked to low, intermediate, and high torsades de pointes (TdP) risk categories. […] This assay allows for the characterization of parameters such as beating frequency, amplitude, peak width, and rise and decay times. […] The iPSC-derived cardiomyocytes generate spontaneous synchronized calcium oscillations. High speed fluorescence imaging with the FLIPR® Penta® System was used to measure the patterns and frequencies of the Ca^2+ oscillations in cardiomyocytes as monitored by changes in intracellular Ca^2+ levels with the EarlyToxTM Cardiotoxicity Kit. A set of 28 known cardiotoxic compounds, plus several benchmark compounds and negative controls, were tested in the assay. iPSC-derived Cardiomyocytes: Cryopreserved human iPSC-derived cells from Cellular Dynamics International (CDI) iCell® Cardiomyocytes2 were used for experiments. Cells were thawed and plated at 20,000/well (96-well format) or 10,000/well into 384-well format plates (Corning) and incubated for 7 days in maintenance media. […] In addition, assay-ready 384-Well plates with cardiomyocytes1 were obtained from […], Inc. Plates were shipped pre-plated and allowed to recover after arrival for 2 days. […] The FLIPR® Penta® System equipped with a new high speed camera allows better resolution of calcium oscillation patterns in cardiomyocytes. The ScreenWorks® Peak ProTM 2 software allows complex event analysis and detailed characterization of patterns using more than 20 available pattern descriptors. The assay can be used for testing developing drugs and screening chemicals for potential cardiotoxic hazards.

[3] = 10 μM, after 30 minutes treatment
[4] = 0.3 μM, after 30 minutes treatment

`NCCCC(=O)O` [GABA] was tested, and the “frequency of primary peaks relative to control” value [1, 3] was “significantly lower frequency than control” and the “peaks detected in calcium oscillation trace (primary / secondary peaks)” value ([1]; 10 μM) was “Only primary peaks 118 are detected”.
In the case of `COc1ccc(CCN2CCC(Nc3nc4ccccc4n3Cc3ccc(F)cc3)CC2)cc1` [astemizole], the “peaks detected in calcium oscillation trace (primary / secondary peaks)” value ([2]; 1 μM) is reported as “No valid peaks are detected”.
`C=C(C)[C@H]1CN[C@H](C(=O)O)[C@H]1CC(=O)O` [kainic acid] was tested, and the “frequency of primary peaks relative to control” value ([1]; 1 μM, after 30 minutes treatment) was “increased relative to control” and the “peaks detected in calcium oscillation trace (primary / secondary peaks)” value ([1]; 1 μM) was “Primary peaks 118 and numerous secondary peaks 150 are detected”.
For `Nc1ccncc1` [4-aminopyridine], the “frequency of primary peaks relative to control” value ([1]; 30 μM, after 30 minutes treatment) was “increased relative to control” and the “peaks detected in calcium oscillation trace (primary / secondary peaks)” value ([1]; 30 μM) was “Primary peaks 118 and secondary peaks 150 are detected”.
`CN(CCOc1ccc(NS(C)(=O)=O)cc1)CCc1ccc(NS(C)(=O)=O)cc1` [dofetilide] was tested, and the “spacing of primary peaks” value ([2]; 10 μM) was “irregular spacing”.
In the case of `C=C[C@H]1C[N@@]2CC[C@H]1C[C@@H]2[C@@H](O)c1ccnc2ccc(OC)cc12` [quinidine], the primary peak prolongation ([2]; 10 μM) is reported as “prolongated”, the “spacing of primary peaks” value ([2]; 10 μM) is reported as “irregular spacing” and the “peaks detected in calcium oscillation trace (primary / secondary peaks)” value ([2]; 10 μM) is reported as “Primary peaks 118 and secondary peaks 150 are detected”.
In the case of `CCCCCCCN(CC)CCCC(O)c1ccc(NS(C)(=O)=O)cc1` (stereo not shown) [ibutilide], the primary peak prolongation ([2]; 1 μM) is reported as “prolongated” and the “peaks detected in calcium oscillation trace (primary / secondary peaks)” value ([2]; 1 μM) is reported as “Primary peaks 118 and secondary peaks 150 are present”.
With `NCC(CC(=O)O)c1ccc(Cl)cc1` (stereo not shown) [baclofen] the “spacing and amplitude regularity of primary peaks” value [1, 3] was “irregular spacing and amplitude”, the “frequency of primary peaks relative to control” value [1, 3] was “significantly lower frequency than control” and the “peaks detected in calcium oscillation trace (primary / secondary peaks)” value ([1]; 10 μM) was “Only primary peaks 118 are detected”.
`CC(C)NCC(O)c1ccc(NS(C)(=O)=O)cc1` (stereo not shown) [sotalol] was tested, and the primary peak prolongation ([2]; 10 μM) was “prolongated”, the “spacing of primary peaks” value ([2]; 10 μM) was “irregular spacing” and the “peaks detected in calcium oscillation trace (primary / secondary peaks)” value ([2]; 10 μM) was “Primary peaks 118 and secondary peaks 150 are detected”.
For `CC(C)[C@@H]1NC(=O)[C@H](C)OC(=O)[C@@H](C(C)C)NC(=O)[C@@H](C(C)C)OC(=O)[C@H](C(C)C)NC(=O)[C@H](C)OC(=O)[C@@H](C(C)C)NC(=O)[C@@H](C(C)C)OC(=O)[C@H](C(C)C)NC(=O)[C@H](C)OC(=O)[C@@H](C(C)C)NC(=O)[C@@H](C(C)C)OC1=O` [valinomycin], the “amplitude and spacing regularity of primary peaks” value [1, 4] was “much more variable”, the “frequency of primary peaks relative to control” value [1, 4] was “much less than control” and the “peaks detected in calcium oscillation trace (primary / secondary peaks)” value ([1]; 0.3 μM) was “Primary peaks 118 and secondary peaks 150 are detected”.
